Literature values in patent US20100285127A1, “TASTE MASKED PHARMACEUTICAL COMPOSITIONS OF S-ALKYLISOTHIOURONIUM DERIVATIVES” (priority 2007, published 2010).

Conditions: Zherebchenko 1968; Goloschapova 1981

For “S-ethylisothiouronium diethylphosphate [Difetur]”, the radioprotective effects is listed as “radioprotective effects”.
